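Method: 48-hour compound exposure of cells in 96-well plates, five concentrations, linear interpolation of endpoints. GI50: concentration for 50% inhibition of growth. Definition used: TGI = concentration required for complete inhibition of growth.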
Experiments:
Experiment in all cases: DTP human tumour cell line panel, 48 h
SW-620 colon = system: SW-620 colon
OVCAR-3 ovarian = system: OVCAR-3 ovarian
SK-OV-3 ovarian = system: SK-OV-3 ovarian
SK-MEL-5 melanoma = system: SK-MEL-5 melanoma
MALME-3M melanoma = system: MALME-3M melanoma
UACC-62 melanoma = system: UACC-62 melanoma
HT29 colon = system: HT29 colon
SF-268 CNS = system: SF-268 CNS
SK-MEL-28 melanoma = system: SK-MEL-28 melanoma
OVCAR-4 ovarian = system: OVCAR-4 ovarian

Compound | GI50 (SW-620 colon) | TGI (SW-620 colon) | GI50 (OVCAR-3 ovarian) | TGI (OVCAR-3 ovarian) | GI50 (SK-OV-3 ovarian) | TGI (SK-OV-3 ovarian) | GI50 (SK-MEL-5 melanoma) | TGI (SK-MEL-5 melanoma) | GI50 (MALME-3M melanoma) | TGI (MALME-3M melanoma) | GI50 (UACC-62 melanoma) | TGI (UACC-62 melanoma) | GI50 (HT29 colon) | TGI (HT29 colon) | GI50 (SF-268 CNS) | TGI (SF-268 CNS) | GI50 (SK-MEL-28 melanoma) | TGI (SK-MEL-28 melanoma) | GI50 (OVCAR-4 ovarian) | TGI (OVCAR-4 ovarian)
CCc1nccc2c1nc(-c1nonc1N)n2CC | > 25 µM | > 25 µM | > 25 µM | > 25 µM | > 25 µM | > 25 µM | > 25 µM | > 25 µM | > 25 µM | > 25 µM | > 25 µM | > 25 µM | > 25 µM | > 25 µM | > 25 µM | > 25 µM | > 25 µM | > 25 µM | > 25 µM | > 25 µM
COc1ccc(OC)c(NC(=O)C2=C(C)NC(C)=C(C(=O)Nc3cc(OC)ccc3OC)C2c2ccccc2)c1 |  | > 100 µM |  | > 100 µM |  | > 100 µM |  | > 100 µM |  | > 100 µM |  | > 100 µM |  | > 100 µM |  | > 100 µM |  | > 100 µM |  | > 100 µM
CN(C)C(=O)OC(Cn1cncn1)c1ccc(Cl)cc1Cl (configuration not stated) |  | > 100 µM |  | > 100 µM |  | > 100 µM |  | > 100 µM |  | > 100 µM |  | > 100 µM |  | > 100 µM |  | > 100 µM |  | > 100 µM |  | > 100 µM
CC[C@@H](C(=O)O)C1CC[C@H](C)C([C@@H](C)[C@H](O)[C@H](C)C(=O)[C@H](CC)C2O[C@]3(C=C[C@@H](O)[C@]4(CC[C@@](C)(C5CC[C@](O)(CC)[C@H](C)O5)O4)O3)[C@H](C)C[C@@H]2C)O1 (some centres not stated) | 1.33 µM | 8.93 µM | 0.0434 µM | 16.4 µM | 3.44 µM | 31.8 µM | 0.18 µM | 0.86 µM | 0.226 µM | 1.37 µM | 0.767 µM | 2.15 µM | 0.293 µM | 25.7 µM | 1.31 µM | 16 µM | 0.549 µM | 1.93 µM | 0.657 µM | 33.7 µM
COc1ccc(/C(C#N)=C/c2ccccc2OC)cc1 | 3.78 µM | > 100 µM | 7.22 µM | > 100 µM | 19.4 µM | > 100 µM | 9.25 µM | > 100 µM | 17.1 µM | > 100 µM | 7.36 µM | > 100 µM | 3.95 µM | 18.3 µM | 35.5 µM | > 100 µM | 17.5 µM | > 100 µM | 32.5 µM | > 100 µM
COc1ccc2c(c1)/C(=C\c1c(C)nc3sccn13)C(=O)N2 | < 0.0476 µM | > 100 µM | < 0.01 µM |  |  | > 38.3 µM | < 0.0474 µM | 3.39 µM | < 0.0478 µM | 97.4 µM | < 0.0356 µM | 3.35 µM |  | > 100 µM | 15.7 µM | > 100 µM | 66.3 µM | > 100 µM | 4.01 µM | > 100 µM
NNC(=O)/C(=C/c1ccc(Cl)cc1Cl)NC(=O)c1ccccc1 |  | > 100 µM |  | > 100 µM |  | > 100 µM |  | > 100 µM |  | > 100 µM |  | > 100 µM |  | > 100 µM |  | > 100 µM |  | > 100 µM |  | > 100 µM
Cc1ccc(C(=O)c2nnc(C(=O)c3ccc(C)cc3)nn2)cc1 |  | 44.1 µM |  | > 100 µM |  | 36.8 µM |  | > 100 µM |  | > 100 µM |  | > 100 µM |  | > 100 µM |  | 55.4 µM |  | > 100 µM |  | > 100 µM
COc1ccc(/C=C(/C#N)C(N)=O)cc1OC |  | > 100 µM |  | > 100 µM |  | > 100 µM |  | > 100 µM |  | > 100 µM |  | > 100 µM |  | > 100 µM |  | > 100 µM |  | > 100 µM |  | > 100 µM
Nc1nc2c(c3ncncc13)C(c1cccc(C(F)(F)F)c1)Cc1ncncc1-2 (configuration not stated) | 4.51 µM | > 100 µM | 3.03 µM | 11.4 µM | 5.07 µM | > 100 µM | 4.88 µM | 17.7 µM | 10.2 µM | 44.7 µM | 3.86 µM | 17.6 µM | 4.2 µM | 15.9 µM | 5.94 µM | 37.7 µM | 11.4 µM | 26.9 µM | 10.8 µM | > 100 µM
CC1OC(O[C@@H]2OC=C(C=O)[C@@]3(O)CC[C@H](C)[C@@H]23)C(O)C(O)C1O (some centres not stated) |  | > 100 µM |  | > 100 µM |  | > 100 µM |  | > 100 µM |  | > 100 µM |  | > 100 µM |  | > 100 µM |  | > 100 µM |  | > 100 µM |  | > 100 µM
CC#C[C@]1(O)CC[C@H]2[C@@H]3CCC4=CC(=O)CCC4=C3[C@@H](c3ccc4c(c3)OCO4)C[C@@]21C | 62.3 µM | > 1000 µM | 110 µM | 320 µM | 186 µM | 777 µM | 66.1 µM | 199 µM | 173 µM | 556 µM | 50 µM | 204 µM | 225 µM | > 1000 µM | 79.1 µM | 481 µM | 85.8 µM | 276 µM | 61.1 µM | 989 µM
Cc1c(C(=O)C/C(=N\O)C(=O)Nc2cc(Cl)c(Cl)cc2Cl)[n+](=O)c2ccccc2n1[O-] |  | 9.74 µM |  | 7.52 µM |  | > 100 µM |  | 20.9 µM |  | 21.1 µM |  | 16.5 µM |  | > 100 µM |  | 75.7 µM |  | 52.1 µM |  | 39.4 µM
Nc1ccccc1C#C/C=C\C#Cc1cccs1 | 14.4 µM | 33 µM | 4.85 µM | 24.8 µM | 26.5 µM | > 52.3 µM | 4.36 µM | 17.6 µM | 5.38 µM | 29.2 µM | 5.96 µM | 19.4 µM | 20.3 µM | 57.3 µM | 4.26 µM | 34.9 µM | 24.6 µM | > 67.5 µM | 16.2 µM | > 50.7 µM
O=C1c2cccnc2C(=O)c2nc3cc(N4CCN(C5CC5)CC4)ccc3nc21 | 0.409 µM | 1.94 µM | 1.24 µM | 3.67 µM | 0.648 µM | 2.89 µM | 0.252 µM | 0.686 µM | 0.178 µM | 0.457 µM | 0.222 µM | 0.631 µM | 0.658 µM | 4.96 µM | 1.24 µM | 4.93 µM | 0.567 µM | 1.98 µM | 1.27 µM | 2.55 µM

Reference: PubChem BioAssay (NCI)
